Values joined by “and” are separate entries in the source; they are usually repeats but may differ in a detail not shown here. Equal entries are not always repeated. Toxic doses and inconclusive results are not listed. Rule as the data show it: active = T/C of 150% or more; inactive = T/C below 125%.
System: L1210 leukemia ip in BDF1 mice, survival T/C
Test: NCI In Vivo Anticancer Drug Screen. Data for tumor model L1210 Leukemia (intraperitoneal) in B6D2F1 (BDF1) mice
Conditions: higher = longer survival
Procedure, shortened: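 Tumor cells were implanted, animals were treated, and survival was followed. The result divides the treated measurement by the vehicle-control measurement.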

Measured: T/C

CC[C@H]1CN2CCc3cc(OC)c(OC)cc3[C@@H]2C[C@@H]1C[C@H]1NCCc2cc(OC)c(OC)cc21
inactive: endpoint: mean survival time, dose: 0.93 mg/kg/injection, schedule: Q04DX003 (ip), vehicle: water 108 % of control | endpoint: mean survival time, dose: 1.0 mg/kg/injection, schedule: Q01DX009 (ip), vehicle: saline 109 % of control | endpoint: mean survival time, dose: 1.75 mg/kg/injection, schedule: Q01DX009 (ip), vehicle: saline 115 % of control and 121 % of control | endpoint: mean survival time, dose: 1.8 mg/kg/injection, schedule: Q01DX009 (ip), vehicle: saline 104 % of control and 120 % of control | endpoint: mean survival time, dose: 1.86 mg/kg/injection, schedule: Q04DX003 (ip), vehicle: water 105 % of control | endpoint: mean survival time, dose: 1.88 mg/kg/injection, schedule: Q01DX001 (ip), vehicle: water 102 % of control | endpoint: mean survival time, dose: 2.0 mg/kg/injection, schedule: Q01DX005 (iv), vehicle: saline 108 % of control | endpoint: mean survival time, dose: 2.0 mg/kg/injection, schedule: Q01DX005 (oral), vehicle: saline 103 % of control | endpoint: mean survival time, dose: 2.0 mg/kg/injection, schedule: Q01DX005 (sc), vehicle: saline 105 % of control | endpoint: mean survival time, dose: 2.0 mg/kg/injection, schedule: Q01DX006 (ip), vehicle: saline 112 % of control | endpoint: mean survival time, dose: 2.0 mg/kg/injection, schedule: Q01DX009 (ip), vehicle: saline 108 % of control | endpoint: mean survival time, dose: 2.0 mg/kg/injection, schedule: Q04DX003 (ip), vehicle: saline 100 % of control | endpoint: mean survival time, dose: 2.0 mg/kg/injection, schedule: Q04DX003 (iv), vehicle: saline 110 % of control | endpoint: mean survival time, dose: 2.0 mg/kg/injection, schedule: Q04DX003 (oral), vehicle: saline 110 % of control | endpoint: mean survival time, dose: 2.0 mg/kg/injection, schedule: Q04DX003 (sc), vehicle: saline 106 % of control | endpoint: mean survival time, dose: 2.0 mg/kg/injection, schedule: Q08DX002 (iv), vehicle: saline 106 % of control | endpoint: mean survival time, dose: 2.0 mg/kg/injection, schedule: Q08DX002 (oral), vehicle: saline 103 % of control | endpoint: mean survival time, dose: 2.5 mg/kg/injection, schedule: Q04DX003 (ip), vehicle: water 104 % of control | endpoint: mean survival time, dose: 3.0 mg/kg/injection, schedule: Q01DX009 (oral), vehicle: saline 112 % of control | endpoint: mean survival time, dose: 3.75 mg/kg/injection, schedule: Q01DX001 (ip), vehicle: water 103 % of control | endpoint: mean survival time, dose: 3.75 mg/kg/injection, schedule: Q04DX003 (ip), vehicle: water 104 % of control | endpoint: mean survival time, dose: 4.0 mg/kg/injection, schedule: Q01DX009 (ip), vehicle: saline 97 % of control | endpoint: mean survival time, dose: 4.0 mg/kg/injection, schedule: Q04DX003 (ip), vehicle: water 113 % of control and 116 % of control and 117 % of control | endpoint: mean survival time, dose: 4.0 mg/kg/injection, schedule: Q04DX003 (iv), vehicle: saline 108 % of control | endpoint: mean survival time, dose: 4.0 mg/kg/injection, schedule: Q04DX003 (oral), vehicle: saline 108 % of control | endpoint: mean survival time, dose: 4.0 mg/kg/injection, schedule: Q04DX003 (sc), vehicle: saline 110 % of control | endpoint: mean survival time, dose: 4.0 mg/kg/injection, schedule: Q08DX002 (ip), vehicle: saline 112 % of control | endpoint: mean survival time, dose: 4.0 mg/kg/injection, schedule: Q08DX002 (oral), vehicle: saline 110 % of control | endpoint: mean survival time, dose: 4.0 mg/kg/injection, schedule: Q08DX002 (sc), vehicle: saline 108 % of control | endpoint: mean survival time, dose: 4.0 mg/kg/injection, schedule: Q## X003 (ip), vehicle: saline 115 % of control | endpoint: mean survival time, dose: 5.0 mg/kg/injection, schedule: Q04DX003 (ip), vehicle: water 109 % of control | endpoint: mean survival time, dose: 6.0 mg/kg/injection, schedule: Q01DX009 (oral), vehicle: saline 108 % of control | endpoint: mean survival time, dose: 6.0 mg/kg/injection, schedule: Q01DX015 (ip), vehicle: saline 102 % of control | endpoint: mean survival time, dose: 7.5 mg/kg/injection, schedule: Q01DX001 (ip), vehicle: water 106 % of control | endpoint: mean survival time, dose: 8.0 mg/kg/injection, schedule: Q04DX003 (ip), vehicle: water 109 % of control and 124 % of control | endpoint: mean survival time, dose: 8.0 mg/kg/injection, schedule: Q04DX003 (iv), vehicle: saline 122 % of control | endpoint: mean survival time, dose: 8.0 mg/kg/injection, schedule: Q04DX003 (oral), vehicle: saline 116 % of control | endpoint: mean survival time, dose: 8.0 mg/kg/injection, schedule: Q04DX003 (sc), vehicle: saline 113 % of control | endpoint: mean survival time, dose: 8.0 mg/kg/injection, schedule: Q08DX002 (ip), vehicle: saline 120 % of control | endpoint: mean survival time, dose: 8.0 mg/kg/injection, schedule: Q08DX002 (oral), vehicle: saline 110 % of control | endpoint: mean survival time, dose: 8.0 mg/kg/injection, schedule: Q08DX002 (sc), vehicle: saline 111 % of control | endpoint: mean survival time, dose: 8.0 mg/kg/injection, schedule: Q## X002 (ip), vehicle: saline 118 % of control | endpoint: mean survival time, dose: 8.0 mg/kg/injection, schedule: Q## X003 (ip), vehicle: saline 123 % of control | endpoint: mean survival time, dose: 8.0 mg/kg/injection, schedule: Q## X008 (ip), vehicle: saline 110 % of control | endpoint: mean survival time, dose: 8.0 mg/kg/injection, schedule: Q## X024 (ip), vehicle: saline 117 % of control | endpoint: mean survival time, dose: 9.0 mg/kg/injection, schedule: Q01DX Z (ip), vehicle: methylcellulose (MC) 92 % of control | endpoint: mean survival time, dose: 10.0 mg/kg/injection, schedule: Q04DX009 (ip), vehicle: water 121 % of control | endpoint: mean survival time, dose: 15.0 mg/kg/injection, schedule: Q01DX001 (ip), vehicle: water 117 % of control | endpoint: mean survival time, dose: 16.0 mg/kg/injection, schedule: Q01DX001 (ip), vehicle: saline 121 % of control | endpoint: mean survival time, dose: 22.2 mg/kg/injection, schedule: Q01DX001 (ip), vehicle: carboxymethylcellulose (CMC) 102 % of control | endpoint: mean survival time, dose: 25.0 mg/kg/injection, schedule: Q04DX009 (ip), vehicle: water 118 % of control | endpoint: mean survival time, dose: 30.0 mg/kg/injection, schedule: Q04DX003 (ip), vehicle: Klucel (hydroxypropylcellulose) (HPC) 95 % of control and 107 % of control | endpoint: mean survival time, dose: 30.0 mg/kg/injection, schedule: Q04DX003 (ip), vehicle: saline with Tween-80 115 % of control | endpoint: mean survival time, dose: 33.35 mg/kg/injection, schedule: Q01DX001 (ip), vehicle: carboxymethylcellulose (CMC) 107 % of control | endpoint: median survival time, dose: 3.75 mg/kg/injection, schedule: Q04DX003 (ip), vehicle: saline 116 % of control | endpoint: median survival time, dose: 4.0 mg/kg/injection, schedule: Q04DX003 (ip), vehicle: saline 103 % of control | endpoint: median survival time, dose: 7.5 mg/kg/injection, schedule: Q04DX003 (ip), vehicle: saline 122 % of control | endpoint: median survival time, dose: 8.0 mg/kg/injection, schedule: Q01DX001 (ip), vehicle: saline 112 % of control | endpoint: median survival time, dose: 30.0 mg/kg/injection, schedule: Q04DX003 (ip), vehicle: saline 101 % of control | endpoint: median survival time, dose: 32.0 mg/kg/injection, schedule: Q04DX003 (ip), vehicle: saline 110 % of control | endpoint: median survival time, dose: 40.0 mg/kg/injection, schedule: Q04DX003 (ip), vehicle: saline 69 % of control
active: endpoint: mean survival time, dose: 8.0 mg/kg/injection, schedule: Q01DX006 (ip), vehicle: saline 156 % of control | endpoint: mean survival time, dose: 15.0 mg/kg/injection, schedule: Q04DX003 (ip), vehicle: Klucel (hydroxypropylcellulose) (HPC) 152 % of control | endpoint: mean survival time, dose: 15.0 mg/kg/injection, schedule: Q04DX009 (ip), vehicle: water 160 % of control | endpoint: mean survival time, dose: 16.0 mg/kg/injection, schedule: Q04DX003 (ip), vehicle: water 161 % of control | endpoint: mean survival time, dose: 16.0 mg/kg/injection, schedule: Q## X003 (ip), vehicle: saline 171 % of control | endpoint: mean survival time, dose: 20.0 mg/kg/injection, schedule: Q04DX003 (ip), vehicle: Klucel (hydroxypropylcellulose) (HPC) 162 % of control and 164 % of control | endpoint: mean survival time, dose: 20.0 mg/kg/injection, schedule: Q04DX009 (ip), vehicle: water 168 % of control | endpoint: mean survival time, dose: 25.0 mg/kg/injection, schedule: Q04DX003 (ip), vehicle: saline with Tween-80 164 % of control | endpoint: mean survival time, dose: 32.0 mg/kg/injection, schedule: Q04DX003 (ip), vehicle: water 154 % of control | endpoint: mean survival time, dose: 32.0 mg/kg/injection, schedule: Q08DX002 (ip), vehicle: saline 152 % of control | endpoint: median survival time, dose: 15.0 mg/kg/injection, schedule: Q04DX003 (ip), vehicle: saline 161 % of control and 168 % of control | endpoint: median survival time, dose: 16.0 mg/kg/injection, schedule: Q04DX003 (ip), vehicle: saline 166 % of control | endpoint: median survival time, dose: 20.0 mg/kg/injection, schedule: Q04DX003 (ip), vehicle: saline 177 % of control and 179 % of control

O=[N+]([O-])c1ccc(C(F)(F)F)cc1
inactive: endpoint: mean survival time, dose: 50.0 mg/kg/injection, schedule: Q01DX009 (ip), vehicle: other 104 % of control | endpoint: mean survival time, dose: 100.0 mg/kg/injection, schedule: Q01DX009 (ip), vehicle: other 101 % of control

ClC(Cl)[P+](N1CCCCC1)(N1CCCCC1)N1CCCCC1
inactive: endpoint: mean survival time, dose: 0.75 mg/kg/injection, schedule: Q04DX003 (ip), vehicle: Klucel (hydroxypropylcellulose) (HPC) 115 % of control | endpoint: mean survival time, dose: 1.5 mg/kg/injection, schedule: Q04DX003 (ip), vehicle: Klucel (hydroxypropylcellulose) (HPC) 118 % of control | endpoint: mean survival time, dose: 3.0 mg/kg/injection, schedule: Q04DX003 (ip), vehicle: Klucel (hydroxypropylcellulose) (HPC) 93 % of control and 118 % of control

From PubChem BioAssay AID248 (DTP/NCI, 2004)
